{"source": "paper PMC5080911", "about": "(Journal of medicinal chemistry, 2016)", "key": {"tubulin": {"test_system": "tubulin", "experiment": "Tubulin polymerization assay", "details": "for effect on tubulin polymerization / time to reach maximum/plateau of tubulin polymerization: 3 µM; for effect on tubulin polymerization: not irradiated; for time to reach maximum/plateau of tubulin polymerization: 37 °C, monitored 1 h; for tubulin polymerization effect of irradiated sample: sample irradiated with far-red light"}, "[1]": {"assay_type": "physicochemical", "details": "10 µM in DMEM with 5% FCS, 690 nm"}, "SKOV-3 cells": {"test_system": "SKOV-3 cells", "experiment": "Stability of prodrugs with the SKOV-3 cells in the dark", "assay_type": "in vitro ADME", "details": "500 nM, 3 day incubation with SKOV-3 cells"}, "[2]": {"experiment": "Solubility in aqueous medium", "assay_type": "physicochemical", "details": "qualitative"}, "[3]": {"experiment": "Stability of prodrugs in the complete medium under dark conditions", "assay_type": "physicochemical", "details": "37 °C, 10 µM, 96 h"}, "[4]": {"details": "5.6 mW/cm^2, illumination 30 min"}}, "note": "Where two headings read alike, the source gives them in different places.", "data": [{"smiles": "CC(=O)O[C@H]1C(=O)[C@@]2(C)[C@H]([C@H](OC(=O)c3ccccc3)[C@]3(O)C[C@H](OC(=O)[C@H](O)[C@@H](NC(=O)c4ccccc4)c4ccccc4)C(C)=C1C3(C)C)[C@]1(OC(C)=O)CO[C@@H]1C[C@@H]2O", "note": "[PTX, Paclitaxel, reference compound]", "values": [{"measurement": "effect on tubulin polymerization", "setting": "tubulin", "value": "the tubulin polymerization was rapid"}]}, {"smiles": "CC(=O)O[C@H]1C(=O)[C@@]2(C)[C@H](O)C[C@@H]3OC[C@]3(OC(C)=O)[C@@H]2[C@@H](OC(=O)c2ccccc2)[C@]2(O)C[C@@H](OC(=O)[C@@H](OC(=O)CCC(=O)N3CCN(CCO[Si]4(OCCN5CCN(C(=O)CCC(=O)O[C@@H](C(=O)O[C@@H]6C[C@@]7(O)[C@H](OC(=O)c8ccccc8)[C@H]8[C@@]9(OC(C)=O)CO[C@H]9C[C@@H](O)[C@]8(C)C(=O)[C@H](OC(C)=O)C(=C6C)C7(C)C)[C@H](NC(=O)c6ccccc6)c6ccccc6)CC5)n5c6c7ccccc7c5/N=C5N=C(/N=c7/c8ccccc8/c(n74)=N/C4=NC(=N\\6)/c6ccccc64)c4ccccc4\\5)CC3)[C@H](NC(=O)c3ccccc3)c3ccccc3)C(C)=C1C2(C)C", "note": "(stereo partly shown) [Compound 5]", "values": [{"measurement": "PTX released from the prodrug", "setting": "[1]; [4]", "value": "could not detect PTX"}, {"measurement": "reduction of recovered prodrug (cells + culture medium)", "setting": "SKOV-3 cells", "value": 3.1, "unit": "%"}, {"measurement": "solubility in aqueous medium", "setting": "[2]", "value": "lower solubility in aqueous medium than 4"}, {"measurement": "time to reach maximum/plateau of tubulin polymerization", "setting": "tubulin", "value": "~ 40 min"}, {"measurement": "tubulin polymerization effect of irradiated sample", "setting": "tubulin", "value": "not much change"}]}, {"smiles": "COc1ccc(/C=C\\c2cc(OC)c(OC)c(OC)c2)cc1O", "note": "[CA4, Combretastatin A-4, reference compound]", "values": [{"measurement": "effect on tubulin polymerization", "setting": "tubulin", "value": "almost completely prevented the polymerization"}]}, {"smiles": "CC(=O)O[C@H]1C(=O)[C@@]2(C)[C@H]([C@H](OC(=O)c3ccccc3)[C@]3(O)C[C@H](OC(=O)[C@H](OC(=O)/C=C/N4CCN(CCO[Si]5(OCCN6CCN(/C=C/C(=O)O[C@@H](C(=O)O[C@H]7C[C@@]8(O)[C@@H](OC(=O)c9ccccc9)[C@@H]9[C@]%10(OC(C)=O)CO[C@@H]%10C[C@H](O)[C@@]9(C)C(=O)[C@H](OC(C)=O)C(=C7C)C8(C)C)[C@@H](NC(=O)c7ccccc7)c7ccccc7)CC6)n6c7c8ccccc8c6/N=C6N=C(/N=c8/c9ccccc9/c(n85)=N/C5=NC(=N\\7)/c7ccccc75)c5ccccc5\\6)CC4)[C@@H](NC(=O)c4ccccc4)c4ccccc4)C(C)=C1C3(C)C)[C@]1(OC(C)=O)CO[C@@H]1C[C@@H]2O", "note": "[Compound 4]", "values": [{"measurement": "decrease (loss) of prodrug in complete medium", "setting": "[3]", "value": "less than 7%"}, {"measurement": "PTX released from the prodrug", "setting": "[1]; 5.6 mW/cm^2, illumination 10 min", "value": "about 83%"}, {"measurement": "PTX released from the prodrug", "setting": "[1]; [4]", "value": "~93", "unit": "%"}, {"measurement": "reduction of recovered prodrug (cells + culture medium)", "setting": "SKOV-3 cells", "value": 4.9, "unit": "%"}, {"measurement": "time to reach maximum/plateau of tubulin polymerization", "setting": "tubulin", "value": "~ 40 min"}, {"measurement": "tubulin polymerization effect of irradiated sample", "setting": "tubulin", "value": "significantly increased"}]}]}
